Assay results: patent publication US7977061B2, “Ex vivo method for determining potential GLP-2 receptor modulators” (NPS Pharmaceuticals Inc., priority 2005, dated 2011)
Entries after “also recorded” stand apart in the source; their conditions may differ. Where two headings read alike, the source gives them in different places.

Molecular target: T1, GLP-2R (Rattus norvegicus, UniProt Q9Z0W0)
T1 construct: the described assay enables native GLP-2R characterization by the direct application of GLP-2 to intestinal tissue segments ex vivo; from tissue; host or cells: colon segments of male Sprague-Dawley rats
T1 sequence (Q9Z0W0 1-550): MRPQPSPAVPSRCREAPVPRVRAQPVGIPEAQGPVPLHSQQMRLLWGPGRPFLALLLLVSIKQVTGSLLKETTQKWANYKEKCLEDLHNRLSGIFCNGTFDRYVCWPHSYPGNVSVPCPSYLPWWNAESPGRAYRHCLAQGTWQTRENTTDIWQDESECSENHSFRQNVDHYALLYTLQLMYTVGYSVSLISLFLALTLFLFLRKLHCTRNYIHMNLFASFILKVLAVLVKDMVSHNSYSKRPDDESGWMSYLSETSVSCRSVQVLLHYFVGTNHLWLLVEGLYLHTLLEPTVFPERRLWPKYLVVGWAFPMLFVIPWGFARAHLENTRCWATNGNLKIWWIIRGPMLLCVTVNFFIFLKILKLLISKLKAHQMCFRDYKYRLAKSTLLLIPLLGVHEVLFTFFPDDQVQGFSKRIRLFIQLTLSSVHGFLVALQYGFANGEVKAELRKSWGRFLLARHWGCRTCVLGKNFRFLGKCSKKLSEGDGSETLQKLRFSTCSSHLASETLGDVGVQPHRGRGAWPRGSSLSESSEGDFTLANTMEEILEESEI
Assay: Ex vivo organ bath assay of spontaneous contractility of rat colon segments
Details: for effect on spontaneous colon contractility: substance alone; for IC50: rat colon segments
Procedure: Segments of colon from male Sprague Dawley rats were suspended in organ bath chambers containing Krebs' solution and maintained at 37° C. with 95% O2 and 5% CO2. Basal tone, contractility rate and peak height were used to measure the properties of spontaneous and ligand-mediated colonic contractions. Segments were initially loaded to a tension of 2 g and allowed to equilibrate for 60 minutes. During this period, segments were repeatedly washed every 10 minutes. [gly2]GLP-2 (“Teduglutide”, a GLP-2 agonist) and GLP-2 analogues were subsequently incubated with each tissue segment for 5 to 10 minutes. The tissues were allowed to re-equilibrate with repeated washes following each experiment.
Male Sprague-Dawley (SD) rats (Charles River Canada, Quebec), weighing 200-250 g, were used for these studies. The animals were housed on contact bedding and kept with free access to food (Purina Rodent Diet) and water in a facility with regulated temperature and humidity, under an alternate 12-hour light/dark cycle. Animals were acclimatized for 3˜5 days prior to harvesting of tissues.
Rats were euthanized by decapitation. The entire intestine was quickly removed and placed in a Petri dish containing a Sylgard layer and 37° C. Krebs' solution bubbled with 95% O2 and 5% CO2. The Krebs' solution (pH 7.4) contained 118.1 mM NaCl, 25 mM NaHCO3, 4.7 mM KCl, 1.2 mM KH2PO4, 1.2 mM MgSO4.7H2O, 2.5 mM CaCl2.2H2O and 11 mM glucose. The colon was isolated, cleaned of superficial fat and mesentery and sectioned into eight 1-cm long segments. The lumen was cleaned by carefully flushing each segment with Krebs' solution using plastic transfer pipets. Segments were transferred to a separate Petri dish containing fresh Krebs' solution and suture threads were tied to both ends of each segment. Tissues were suspended longitudinally using surgical suture, one end attached to the transducer on the top and the other to the tissue holder at the bottom of 20 ml organ bath chambers containing Krebs' solution, maintained at 37° C. with 95% O2 and 5% CO2. Isometric tensions were continuously measured using calibrated force displacement transducers and data was collected and processed by the MP100WSW system with AcqKnowledge software
Segments of colon were initially loaded to a tension of 2 g and allowed to equilibrate for a 60 min period. During this period, segments were washed with Krebs' solution at 10 minutes intervals. When the tissues obtained regular and stable contraction patterns, GLP-2 agonist response experiments were conducted by the addition of eight concentrations of compound into eight separate organ baths for 5-10 minutes. Routinely, one-hour washes were interspersed between repeat applications of compounds to allow for recovery. The effect of GLP-2(3-33) on GLP-2 agonist analogues were conducted by pre-incubating colon segments with 1 or 10 uM GLP-2(3-33) for 5-10 minutes. Then agonist responses were measured at various concentrations as described above.
Tension was measured by changes in peak height. Data were calculated and expressed as percentage response relative to the basal level (prior to the experiment). Graphs and IC50 determinations were plotted by the percentage response in GraphPad Prism (v 3.02). In order to assess the significance of the effect of GLP-2 and Teduglutide paired t-tests were conducted on the Log [IC50] values.

| Molecule | effect on spontaneous colon contractility (rat colon) | IC50 (agonist alone, read-out: estimated IC50, inhibition of colon contractility) [µM] | IC50 (pre-incubated with 1 μM GLP-2(3-33), read-out: estimated IC50, inhibition of colon contractility in the presence of GLP-2(3-33)) [µM] | IC50 (pre-incubated with 10 μM GLP-2(3-33), read-out: estimated IC50, inhibition of colon contractility in the presence of GLP-2(3-33)) [µM] | effect on GLP-2(1-33)-induced inhibition of colon contractility (rat colon, 1 μM and 10 μM test substance, agonist GLP-2(1-33)) | effect on teduglutide-induced inhibition of rat colon contractility (rat colon, 1 μM and 10 μM test substance, agonist teduglutide) |
| --- | --- | --- | --- | --- | --- | --- |
| CC[C@H](C)[C@H](NC(=O)[C@H](Cc1ccccc1)NC(=O)[C@H](CC(=O)O)NC(=O)[C@H](CCCNC(=N)N)NC(=O)[C@H](C)NC(=O)[C@H](C)NC(=O)[C@H](CC(C)C)NC(=O)[C@H](CC(N)=O)NC(=O)[C@H](CC(=O)O)NC(=O)[C@H](CC(C)C)NC(=O)[C@@H](NC(=O)[C@@H](NC(=O)[C@H](CC(N)=O)NC(=O)[C@H](CCSC)NC(=O)[C@H](CCC(=O)O)NC(=O)[C@H](CC(=O)O)NC(=O)[C@H](CO)NC(=O)[C@H](Cc1ccccc1)NC(=O)[C@H](CO)NC(=O)CNC(=O)[C@H](CC(=O)O)NC(=O)[C@H](C)NC(=O)[C@@H](N)Cc1c[nH]cn1)[C@@H](C)O)[C@@H](C)CC)C(=O)N[C@@H](CC(N)=O)C(=O)N[C@@H](Cc1c[nH]c2ccccc12)C(=O)N[C@@H](CC(C)C)C(=O)N[C@H](C(=O)N[C@@H](CCC(N)=O)C(=O)N[C@H](C(=O)N[C@@H](CCCCN)C(=O)N[C@H](C(=O)N[C@H](C(=O)N[C@@H](CC(=O)O)C(=O)O)[C@@H](C)O)[C@@H](C)CC)[C@@H](C)O)[C@@H](C)CC [GLP-2(1-33)] | inhibits spontaneous colon contractility in a concentration-dependent manner |  |  |  |  |  |
| CC[C@H](C)[C@H](NC(=O)[C@H](Cc1ccccc1)NC(=O)[C@H](CC(=O)O)NC(=O)[C@H](CCCNC(=N)N)NC(=O)[C@H](C)NC(=O)[C@H](C)NC(=O)[C@H](CC(C)C)NC(=O)[C@H](CC(N)=O)NC(=O)[C@H](CC(=O)O)NC(=O)[C@H](CC(C)C)NC(=O)[C@@H](NC(=O)[C@@H](NC(=O)[C@H](CC(N)=O)NC(=O)[C@H](CCSC)NC(=O)[C@H](CCC(=O)O)NC(=O)[C@H](CC(=O)O)NC(=O)[C@H](CO)NC(=O)[C@H](Cc1ccccc1)NC(=O)[C@H](CO)NC(=O)CNC(=O)[C@H](CC(=O)O)NC(=O)CNC(=O)[C@@H](N)Cc1c[nH]cn1)[C@@H](C)O)[C@@H](C)CC)C(=O)N[C@@H](CC(N)=O)C(=O)N[C@@H](Cc1c[nH]c2ccccc12)C(=O)N[C@@H](CC(C)C)C(=O)N[C@H](C(=O)N[C@@H](CCC(N)=O)C(=O)N[C@H](C(=O)N[C@@H](CCCCN)C(=O)N[C@H](C(=O)N[C@H](C(=O)N[C@@H](CC(=O)O)C(=O)O)[C@@H](C)O)[C@@H](C)CC)[C@@H](C)O)[C@@H](C)CC [Teduglutide, [gly2]GLP-2] | inhibited spontaneous colon contractility in a concentration-dependent manner | 0.0049 ± 0.0019 | 0.0347 ± 0.0151 | 0.0599 ± 0.0119 |  |  |
| GLP-2(3-33) (DGSFSDEMNTILDNLAARDFINWLIQTKITD; Glucagon-like peptide 2; UniProt P01275 148-178, looked up, fragment) [a GLP-2 antagonist/partial agonist] | no effect alone |  |  |  | blocked GLP-2(1-33)-induced inhibition of colon contractility; also recorded: blocked the inhibitory effects; also recorded: blocks the effect of GLP-2(1-33) in a concentration-dependent manner | blocked teduglutide-induced inhibition of colon contractility; also recorded: blocked the inhibitory effects |
